In article PMC6017838, “Synthesis and Anticandidal Activity of New Imidazole-Chalcones” (Molecules : A Journal of Synthetic Chemistry and Natural …, 2018):
≈ marks a conversion by molar mass, not a printed value.

What was measured:
C. glabrata (ATCC 90030) = assay: Anticandidal activity, EUCAST EDef 7.1 broth dilution with resazurin; type: cell-based; conditions: Nakaseomyces glabratus, ATCC90030, RPMI pH 7, 24 h
Procedure: (§1) Synthesized compounds (3a–3o) were evaluated for anticandidal activity against C. albicans (ATCC 24433), C. krusei (ATCC 6258), C. parapsilosis (ATCC 22019), and C. glabrata (ATCC 90030). MIC50 values were determined via fluorometric measurements, using resazurin solution [24, 25]. Ketoconazole and fluconazole were used as a standard drug in the activity test.
(§2) Microbiological studies were performed according to the EUCAST definitive (EDef 7.1) method for C. albicans (ATCC 24433), C. krusei (ATCC 6258), C. parapsilosis (ATCC 22019), and C. glabrata (ATCC 90030). Fluconazole and ketoconazole were used as control drugs. Two MIC readings were carried out for each chemical agent. The yeasts were maintained in RPMI after overnight incubation at 37 °C. The inocula of test microorganisms was adjusted to match the turbidity of a MacFarland 0.5 standard tube as determined with a spectrophotometer, and the final inoculum size was 0.5–2.5 × 10^5 cfu/mL for the antifungal assay. Testing was carried out in RPMI at pH = 7, and the two-fold serial dilutions technique was applied. The last well on the microplates containing only inoculated broth was kept as a control, and the last well with no growth of microorganism was recorded to represent the MIC50 expressed in μg/mL. For the antifungal assays, the compounds were dissolved in DMSO. Further dilutions of the compounds and standard drugs in the test medium were prepared at the required quantities of 800, 400, 200, 100, 50, 25, 12.5, 6.25, 3.125, 1.5625, and 0.78 μg/mL concentrations RPMI. The completed plates were incubated for 24 h. At the end of the incubation, resazurin (20 µg/mL) was added into each well to control the growth in the wells. Completed plates were incubated for 2 h. MIC50 values were determined using a microplate reader at […].

[1] = tested on: C. parapsilosis (ATCC 22019); assay: as above; type: cell-based; conditions: Lodderomyces parapsilosis, ATCC22019, RPMI pH 7, 24 h
Procedure: as §1, §2

C. krusei (ATCC 6258) = assay: as above; type: cell-based; conditions: Pichia kudriavzevii, ATCC6258, RPMI pH 7, 24 h
Procedure: as §1, §2

C. albicans (ATCC 24433) = assay: as above; type: cell-based; conditions: Candida albicans, ATCC24433, RPMI pH 7, 24 h
Procedure: as §1, §2

[2] = tested on: NIH/3T3 mouse embryonic fibroblast cell line; assay: MTT cytotoxicity test; type: cell-based; conditions: NIH3T3, cytotoxic activity, NIH/3T3 cell line
Procedure: The main cause of failure in all stages of the new drug development process is toxicity. Early identification of toxicities of drug candidates is very important in terms of drug development studies. […] Cytotoxicity of selected compounds (3a–3d), displaying strong anticandidal activity and good predicted pharmacokinetics, was determined against NIH/3T3 mouse embryonic fibroblast cell lines (ATCC CRL1658).
Cytotoxicity was tested using the NIH/3T3 mouse embryonic fibroblast cell line (ATCC® CRL-1658™, London, UK). NIH/3T3 cells were incubated according to the supplier’s recommendations. NIH/3T3 cells were seeded at 1 × 10^4 cells into each well of the 96-well plates. The MTT assay was performed as previously described. The compounds were tested between 800 and 0.78 µg/mL concentrations. Inhibition % was calculated for each concentration according to the formula below, and IC50 values were determined by plotting a dose–response curve of inhibition % versus compound concentrations tested.
% inhibition = 100 − (mean sample × 100/mean solvent).

[3] = tested on: ergosterol biosynthesis in C. krusei; assay: Quantification of ergosterol level by LC-MS-MS; type: cell-based; conditions: Pichia kudriavzevii, mean ± SD, quadruplicate
Source text: Sterols are neutral lipids of eukaryotic cells, among which ergosterol is the main constituent of fungal membranes. Ergosterol has biological functions such as membrane fluidity, regulation, activity and distribution of integral membrane proteins, and control of the cell cycle. The critical role of sterols in maintenance of cell membranes make ergosterol and its biosynthetic pathway essential for fungal growth, and a primary target for antifungal drugs to treat fungal infections. From this point of view, we performed an LCMSMS (Shimadzu LCMS 8040, Kyoto, Japan) method for quantitative determination of ergosterol content of C. krusei as reported in our recent study. Compounds 3a–3d, displaying the best anticandidal activity and low cytotoxic effect, and reference agents ketoconazole and fluconazole were tested at concentrations of 0.78–3.12 µg/mL. Ergosterol standard (Product No.: 45480, Sigma-Aldrich, Darmstadt, Germany) was used for the quantification of ergostrerol in samples, which were treated with reference agents and Compounds 3a–3d. Ergosterol quantity of the negative control was considered as 100%. Quadruplicate analyses were performed for all concentrations and the obtained data were expressed as mean ± standard deviation (SD) (Table 2).
Extraction of total sterols from C. krusei was performed as recorded by Breivik and Owades. Quantification of ergosterol level in this extract was carried out in accordance with our recently described method.

SMILES	MIC50 (C. glabrata (ATCC 90030)) [µg/mL]	MIC50 [1] [µg/mL]	MIC50 (C. krusei (ATCC 6258)) [µg/mL]	MIC50 (C. albicans (ATCC 24433)) [µg/mL]	IC50 [2] [µg/mL]	inhibition at 0.78 µg/mL [3] [%]	inhibition at 1.56 µg/mL [3] [%]	inhibition at 3.12 µg/mL [3] [%]	melting point [°C]
Cc1ccc(Oc2ccc(C=CC(=O)c3ccc(-n4ccnc4)cc3)cc2)cc1 [Compound 3a, 1-(4-(1H-Imidazol-1-yl)phenyl)-3-(4-(p-tolyloxy)phenyl)prop-2-en-1-one]	3.12 (≈ 8.21 µM)	0.78 (≈ 2.05 µM)	0.78 (≈ 2.05 µM)	3.12 (≈ 8.21 µM)	> 500	66.2 ± 2.23	79.5 ± 3.16	86.5 ± 4.77	146 to 148
Cc1ccc(Sc2ccc(C=CC(=O)c3ccc(-n4ccnc4)cc3)cc2)cc1 [Compound 3b, 1-(4-(1H-Imidazol-1-yl)phenyl)-3-(4-(p-tolylthio)phenyl)prop-2-en-1-one]	3.12 (≈ 7.88 µM)	0.78 (≈ 1.97 µM)	0.78 (≈ 1.97 µM)	3.12 (≈ 7.88 µM)	> 500	68.6 ± 1.98	81.6 ± 4.07	83.5 ± 3.18	168 to 169
COc1ccc(Oc2ccc(C=CC(=O)c3ccc(-n4ccnc4)cc3)cc2)cc1 [Compound 3c, 1-(4-(1H-Imidazol-1-yl)phenyl)-3-(4-(4-methoxyphenoxy)phenyl)prop-2-en-1-one]	0.78 (≈ 1.97 µM)	0.78 (≈ 1.97 µM)	0.78 (≈ 1.97 µM)	1.56 (≈ 3.93 µM)	436 ± 1.03 (≈ 1100 µM)	71.1 ± 4.9	78.2 ± 2.7	84.3 ± 4.65	168 to 170
COc1ccc(Sc2ccc(C=CC(=O)c3ccc(-n4ccnc4)cc3)cc2)cc1 [Compound 3d, 1-(4-(1H-Imidazol-1-yl)phenyl)-3-(4-((4-methoxyphenyl)thio)phenyl)prop-2-en-1-one]	0.78 (≈ 1.89 µM)	3.12 (≈ 7.58 µM)	1.56 (≈ 3.78 µM)	1.56 (≈ 3.78 µM)	388 ± 20.2 (≈ 940 µM)	52.5 ± 1.83	67.1 ± 2.7	74.1 ± 2.21	177 to 179
O=C(C=Cc1ccc(N2CCCC2)cc1)c1ccc(-n2ccnc2)cc1 [Compound 3e, 1-(4-(1H-Imidazol-1-yl)phenyl)-3-(4-(pyrrolidin-1-yl)phenyl)prop-2-en-1-one]	12.5 (≈ 36.4 µM)	12.5 (≈ 36.4 µM)	12.5 (≈ 36.4 µM)	50 (≈ 146 µM)					186 to 188
O=C(C=Cc1ccc(N2CCOCC2)cc1)c1ccc(-n2ccnc2)cc1 [Compound 3f, 1-(4-(1H-Imidazol-1-yl)phenyl)-3-(4-morpholinophenyl)prop-2-en-1-one]	12.5 (≈ 34.8 µM)	12.5 (≈ 34.8 µM)	12.5 (≈ 34.8 µM)	50 (≈ 139 µM)					214 to 215
O=C(C=Cc1ccc(N2CCCCC2)cc1)c1ccc(-n2ccnc2)cc1 [Compound 3g, 1-(4-(1H-Imidazol-1-yl)phenyl)-3-(4-(piperidin-1-yl)phenyl)prop-2-en-1-one]	12.5 (≈ 35 µM)	12.5 (≈ 35 µM)	25 (≈ 69.9 µM)	50 (≈ 140 µM)					198 to 199
CC1CCCN(c2ccc(C=CC(=O)c3ccc(-n4ccnc4)cc3)cc2)C1 (centres unmarked) [Compound 3h, 1-(4-(1H-Imidazol-1-yl)phenyl)-3-(4-(3-methylpiperidin-1-yl)phenyl)prop-2-en-1-one]	12.5 (≈ 33.6 µM)	12.5 (≈ 33.6 µM)	25 (≈ 67.3 µM)	50 (≈ 135 µM)					163 to 165
